The subject of the test is gray mold fungus (Botrytis cinerea). Kind of test: Cucumber leaf disk preventive test against gray mold. The test is classed as in vivo. The settings on record: for pest or weed control at 0.5 ppm / pest or weed control at 5 ppm: Botrytis cinerea, foliar, 96 h, read-out: preventive value (%). The method, then:
To a SUS beaker are added 30 parts of the present compound (racemate), 5 parts of Soprophor FLK (polyoxyethylene tristyrylphenyl ether phosphate, produced by Rhodia Nicca Ltd.), 65 parts of ion-exchange water and 150 parts of glass beads (1.0 mm diameter). The mixture is subjected to grinding at a velocity of 1000 rpm with cooling to 10° C., and thereafter the glass beads are separated, so as to obtain a flowable formulation comprising the present compound (racemate).
True leaf of cucumber is punched out with cork borer to 13 mm in diameter to prepare a leaf disk. In 24 well microwell plate that is dispensed with 1 ml 0.8% water agar, the leaf disk is placed such that the upper side of the leaf is in an upward direction. Thereto is added 20 micro liter a testing solution prepared by mixing the flowable formulation of the present compound (racemate) prepared by the above procedure and a commercial wettable powder of fludioxonil or chlorothalonil to a predetermined concentration to treat the leaf disk.
After confirming that the testing medical solution is dried, conidium of gray mold fungus (Botrytis cinerea) is suspended into potato dextrose broth (DIFCO) in a density of about 10^5 conidium/mL and is then subjected to a spray inoculation. After leaving to stand the leaf disk in a growth chamber set up at 15° C. for four days, an onset area on the leaf is measured and then calculated an onset area rate (hereinafter, referred to as an onset area rate of treated group).
The same operation is carried out with 20 micro liter water instead of 20 micro liter a testing medicine solution to calculate an onset area rate (hereinafter, referred to an onset area rate of non-treated group).
A preventive value is calculated from the above onset area rate of treated group and the onset area rate of non-treated group by the following equation: Preventive value (%)=100×(A−B)/A
A: an onset area rate of treated group
B: an onset area rate of non-treated group
The same operations as described in Test Example 1 are carried out with cyflufenamid, diethofencarb, dithianon, fluazinam, flusulfamide, fosetyl-Al, metrafenon, penflufen, phthalide, sedaxane, spiroxamine or tebufloquin, instead of fludioxonil or chlorothalonil, so as to calculate respective preventive values.
Also for comparison, the same operations as described in Test Example 1 are carried out with the exception that the testing medicine solution is substituted with a predetermined concentration of each dimethyl sulfoxide solution of the present compound (racemate), cyflufenamid, diethofencarb, dithianon, fluazinam, flusulfamide, fosetyl-Al, metrafenon, penflufen, phthalide, sedaxane, spiroxamine or tebufloquin, so as to calculate respective preventive values.
For comparison, the same operations as described in Test Example 1 are carried out with the exception that the testing medicine solution is substituted with a predetermined concentration of each dimethyl sulfoxide solution of fludioxonil or chlorothalonil, so as to calculate a preventive value.

Setting [1] is: partner fungicide alone 0.5 ppm, dimethyl sulfoxide solution, cucumber leaf disk, 15° C., four days.
Setting [2] is: partner fungicide alone 5.0 ppm, dimethyl sulfoxide solution, cucumber leaf disk, 15° C., four days.

Like-named read-outs stand apart in the source and are kept apart here.

`O=C1OCc2ccccc21` [phthalide]: under setting [1], the pest or weed control at 0.5 ppm came to 10%. For the same compound, under setting [2], the pest or weed control at 5 ppm came to 15%.

As to `N#Cc1c(Cl)c(Cl)c(Cl)c(C#N)c1Cl` [chlorothalonil], the pest or weed control at 0.5 ppm under setting [1] came out at 15%. Moreover, under setting [2], the pest or weed control at 5 ppm came out at 45%.

`CCO[PH](=O)O` [fosetyl-Al]: the “preventive value (%)” value reads like this: under setting [1], 15%; under setting [2], 20%.

As for `Cn1cc(C(=O)Nc2ccccc2C2CC2C2CC2)c(C(F)F)n1` (stereo not shown) [sedaxane], the “preventive value (%)” value under setting [1] is given as 20% and the “preventive value (%)” value under setting [2] is 40%.

Turning to `COc1cc(C)c(C(=O)c2c(OC)ccc(Br)c2C)c(OC)c1OC` [metrafenon], the “preventive value (%)” value was determined as 10% under setting [1] and 15% under setting [2].

With `O=C(Cc1ccccc1)N/C(=N\OCC1CC1)c1c(C(F)(F)F)ccc(F)c1F` [cyflufenamid], the pest or weed control at 0.5 ppm under setting [1] stood at 10%. For the same compound, the pest or weed control at 5 ppm under setting [2] was 15%.

Take `CC(=O)Oc1c(C)c(C)nc2c(F)cc(C(C)(C)C)cc12` [tebufloquin]: the “preventive value (%)” value is, setting by setting: under setting [1], 10%; under setting [2], 15%.

Take `N#Cc1c[nH]cc1-c1cccc2c1OC(F)(F)O2` [fludioxonil]: the pest or weed control at 0.5 ppm came to 45% and the pest or weed control at 5 ppm stood at 57%.

As for `N#Cc1sc2c(=O)c3ccccc3c(=O)c=2sc1C#N` [dithianon], the pest or weed control at 0.5 ppm under setting [1] amounted to 15%. In addition, the pest or weed control at 5 ppm under setting [2] is 20%.

With `CCOc1ccc(NC(=O)OC(C)C)cc1OCC` [diethofencarb], the pest or weed control at 0.5 ppm under setting [1] was determined as 0%. For the same compound, the pest or weed control at 5 ppm under setting [2] is 0%.

Regarding `Cc1nn(C)c(F)c1C(=O)Nc1ccccc1C(C)CC(C)C` (stereo not shown) [penflufen], the “preventive value (%)” value came out at 10% under setting [1] and 15% under setting [2].

For the compound `O=[N+]([O-])c1cc(C(F)(F)F)c(Cl)c([N+](=O)[O-])c1Nc1ncc(C(F)(F)F)cc1Cl` [fluazinam], the pest or weed control at 0.5 ppm under setting [1] was 47%. Further, the pest or weed control at 5 ppm under setting [2] was determined as 52%.

For the compound `O=[N+]([O-])c1ccc(NS(=O)(=O)c2ccc(Cl)c(C(F)(F)F)c2)c(Cl)c1` [flusulfamide], the pest or weed control at 0.5 ppm came to 15% and the pest or weed control at 5 ppm stood at 20%.

Regarding `CCCN(CC)CC1COC2(CCC(C(C)(C)C)CC2)O1` (stereo not shown) [spiroxamine], under setting [1], the pest or weed control at 0.5 ppm was determined as 10%. Under setting [2], the pest or weed control at 5 ppm stood at 15%.
